Measured values published in article PMC3436892, “Novel African Trypanocidal Agents: Membrane Rigidifying Peptides” (PLoS ONE, 2012).

Tests used:
[1] = system: interfacial region of the plasma membrane of BSF T. b. brucei; test: TMA-DPH fluorescence anisotropy (interfacial membrane rigidity); assay type: cell-based, Trypanosoma brucei brucei; details: live BSF cells 3×10^6 cells/mL in PBS, 0.5 µM TMA-DPH, 37°C, increasing SHP concentrations, triplicate (Fig. 2b)
Protocol: The plasma membrane rigidity of live T. b. brucei was determined by measuring the fluorescence depolarization of diphenyl-1,3,5- hexatriene p-toluenesulfonate (DPH) or 1-(4-trimethylammoniumphenyl)-6-diphenyl-1,3,5- hexatriene p-toluenesulfonate (TMA-DPH; Invitrogen T204). Cells were washed 3 times with and resuspended in phosphate buffered saline at a density of 3×10^6 cells/mL. The anisotropic probes were added to a final concentration of 0.5 µM and allowed to intercalate into the cell membrane for 1 h in the dark. Anisotropic values were acquired via the software function of a PerkinElmer Life Sciences LS55 spectrofluorometer. Samples were excited at 358 nm, and emission was read at 430 nm, with 10-nm excitation and emission slit widths. Temperature was maintained at 37°C by means of the PerkinElmer LS55 Biokinetics accessory. Data were corrected for light scattering with an unlabeled sample of cells, and anisotropy was calculated according to the equation r = (IVV - GIVH)/(IVV + 2GIVH), where r is the anisotropy value, IVV is the emission intensity acquired with the excitation- and emission-polarizing filters set vertically, G is the instrument correction factor, and IVH is the emission intensity acquired with the excitation-polarizing filter set vertically and the emission-polarizing filter set horizontally. […]

BSF T. b. brucei VSG = test: FRAP of surface VSG; assay type: cell-based, strain 427; details: 8 µM peptide, 10 min at 37°C, cells immobilized in gelatin, line FRAP at 20°C (Fig. 2c)
Protocol: Bloodstream form T. b. brucei, strain 427, expressing VSG MITat1.6 were cultivated in HMI 9 media with 10% fetal calf serum. 1×10^7 cells were washed three times with ice cold trypanosome dilution buffer (TDB; 5 mM KCl, 80 mM NaCl, 1 mM MgSO4, 20 mM Na2HPO4, 2 mM NaH2PO4, 20 mM glucose, pH 7.6). The cell density was adjusted to 1×10^8 cells/mL and labeling of surface proteins was achieved by incubation with 1 µM sulfo-NHS coupled Atto 488 fluorescent dye (ATTO-TEC GmbH, Siegen) for 15 min on ice. After incubation the cells were washed three times with ice cold TDB to remove unbound dye. Labeled T. b. brucei cells were incubated with 8 µM SHP-1 for 10 min at 37°C. The fluorescently labeled cells were mixed 1∶3 with 10% Type-A gelatin from porcine skin (Sigma-Aldrich, Steinheim) in PBS, pH 7.8, at 37°C. 4 µL of the cell gelatin mixture was applied into a cover slide sandwich and mounted into a temperature controlled sample holder. The sample holder was cooled to 20°C until the cells were immobilized. Samples of SHP-1 treated and untreated MITat 1.6 wt cells were prepared identically. […] 10 pre-bleach and 100 post-bleach images were recorded at 2fps. VSG mobile fractions were determined according to Phair et al. (2004) using double normalization. The mobile fraction refers to the percentage of mobile VSG molecules within the measured region. […]

BSF T. b. brucei = details: veterinary and human pathogenic BSF T. brucei; cited from earlier work
Text: Specificity of SHP is mediated by a high degree of fluidity in the plasma membrane of BSF cells. […] Human cells, including erythrocytes, are refractory to SHP concentrations orders of magnitude higher than necessary to kill BSF T. brucei.

metacyclic T. b. brucei = test: 2 h in vitro killing assay, metacyclic form; assay type: cell-based, Trypanosoma brucei brucei strain STIB247; details: 2 h incubation, 1×10^4 cells/mL, HMI 9 with 10 % fetal bovine serum, live cells scored by hemocytometer, at least duplicate (Fig. 1a)
Protocol: Light microscopy based trypanosome killing assays were performed as previously described in detail, [10], [21], [22]. Metacyclic Trypanosoma brucei brucei strain STIB247 were obtained from dissection of the salivary glands of infected tsetse flies. Newly hatched Glossina morsitans morsitans (24–48 h post eclosion) were fed two defibrinated horse blood meals containing 2×10^6 mL^-1 trypanosomes on two separate days. Flies were then maintained at 25°C in 75 % relative humidity and fed maintenance blood meals three times per week. Following day 20–30, flies were harvested and salivary glands were dissected out and placed into HMI 9 media containing 10 % fetal bovine serum for 30 minutes. Metacyclic cells were expelled into the media by the residual peristalsis of the salivary glands. Cells were collected via centrifugation and maintained in HMI 9 media with 20 % fetal bovine serum at 37°C in 5 % CO2 until use. Killing assays were conducted with 1×10^4 cells/mL in HMI 9 media containing 10 % fetal bovine serum. Live cells were scored via hemocytometer after 2 h incubation. Trypanosoma vivax strain ILRAD V34 and Trypanosoma congolense strain IL3000 were grown from stabilites in donor ICR mouse (Harlan, United Kingdom). […] Cells were incubated at 37°C for 2 h and live cells were scored visually via hemocytometer. […]

SDLGAVISLLLWGRQLFA [SHP-1, trypanocidal small hydrophobic peptide derived from an apolipoprotein, with characteristics of a secretory signal peptide]
interfacial rigidity of the plasma membrane (TMA-DPH fluorescence depolarization) [1]: increased the interfacial rigidity | fraction of laterally mobile surface exposed VSG (BSF T. b. brucei VSG): decreases | susceptibility of BSF T. brucei to killing (BSF T. b. brucei): uniquely susceptible to killing | killing activity against metacyclic T. b. brucei (metacyclic T. b. brucei): no killing activity
